The values below come from PMC8699537, “In Vitro Anti-SARS-CoV-2 Activity of Selected Metal Compounds and Potential Molecular Basis for Their Actions Based on Computational Study” (Biomolecules, 2021).

Molecules are shown by their SMILES. Read-outs that look alike come from different tables or passages of the source.

The subject of data set [1] is SARS-CoV-2. The class given is cell-based. The following applies: for IC50 (half-maximal inhibitory concentration), SYRA: DYRA supernatants on VERO E6 cells, 24 h.
Data set [2] has as its system Calu-3 cells. Description: Cytotoxicity, CellTiter-Glo 2.0 Luminescent Cell Viability Assay. The following applies: read-out: CC50 (half-maximal cytotoxic concentration), 48h exposure. For orientation: Cellular ATP, detected with luciferase, serves as a proxy for viable cell number.
The subject of data set [3] is SARS-CoV-2. Description: microbe, parasite or virus in culture. In kind it is cell-based. The settings on record: for IC50 (half-maximal inhibitory concentration), DYRA / IC50: Calu-3 cells, SARS-CoV-2 lineage B.1, 48h, DYRA; for IC50: read-out: IC50 (half-maximal inhibitory concentration), DYRA.
Data set [4] can be described thus: in vitro. The following applies: human.
For data set [5], the system named is SARS-CoV-2. Details: method as in PMID 32442105. The settings on record: Huh-7 cells; viral RNA in cell supernatant; cited from earlier work.
In data set [6] the test system is Huh-7 cells. Details: method as in PMID 32442105. The settings on record: cited from earlier work.

For `[Cl-].[Cl-].[Ti+4].c1cc[cH-]c1.c1cc[cH-]c1` [TiCp2Cl2, Titanocene dichloride], the IC50 in data set [1] (read-out: IC50 (half-maximal inhibitory concentration), SYRA) is 47.3 µM. The CC50 in data set [2] was more than 200 µM.
As to `CCOC(=O)CN(C)C1=[S+][Au-]([Br])([Br])[S]1` [AuL12], the “IC50 (half-maximal inhibitory concentration), DYRA” value in data set [3] was “Not active ^3”. Further, the “IC50 (half-maximal inhibitory concentration), SYRA” value in data set [1] is “Not active ^3”. The CC50 in data set [2] is 19 µM.
For the molecule `CS(C)=O.[Cl-].[Cl-].[Cl-].[Cl-].[Ru+3].c1c[nH+]c[nH]1.c1c[nH]cn1` [NAMI-A], in data set [3], the “IC50 (half-maximal inhibitory concentration), DYRA” value is recorded as “Not active ^3”. Besides, the “IC50 (half-maximal inhibitory concentration), SYRA” value in data set [1] is listed as “Not active ^3”.
For `CCC(CC)COC(=O)[C@H](C)N[P@](=O)(OC[C@H]1O[C@@](C#N)(c2ccc3c(N)ncnn23)[C@H](O)[C@@H]1O)Oc1ccccc1` [Remdesivir], in data set [3] (CC50/IC50 ratio, IC50 from DYRA), the “Selectivity Index” value is given as 485. Moreover, the IC50 in data set [3] (Severe acute respiratory syndrome coronavirus 2) came to 0.2 ± 0.05 µM. Also, the CC50 in data set [4] amounted to 97 µM.
Take `CC[P](CC)(CC)[Au][I]` [Au(Pet3)I]: the “IC50 (half-maximal inhibitory concentration), DYRA” value in data set [3] is recorded as “Not active ^3”. The “IC50 (half-maximal inhibitory concentration), SYRA” value in data set [1] was “Not active ^3”. Moreover, in data set [2], the CC50 worked out at 12 µM.
Take `Cl.[Cl-].[Cl-].[Cl-].[Ru+3].c1ccc2[nH]ncc2c1.c1ccc2[nH]ncc2c1.c1ccc2[nH]ncc2c1` [KP1019]: the IC50 in data set [3] amounted to 8.8 ± 1.5 µM. For the same molecule, the CC50 in data set [2] was 60 µM.
Take `CC(=O)OC[C@H]1O[C@@H]([S-])[C@H](OC(C)=O)[C@@H](OC(C)=O)[C@@H]1OC(C)=O.CCP(CC)CC.[Au+]` [Auranofin]: in data set [3], the “IC50 (half-maximal inhibitory concentration), DYRA” value was “Not active ^3”. In data set [1], the “IC50 (half-maximal inhibitory concentration), SYRA” value is recorded as “Not active ^3”. Moreover, the IC50 in data set [5] is 1.4 µM. In addition, the values for the CC50 in data set [6] and in data set [2] were 5.7 µM and 3.7 µM, respectively.
As to `[Cl][Sb]([Cl])[Cl]` [SbCl3, antimony trichloride], the IC50 in data set [3] came to 31.1 ± 15.3 µM. Also, the CC50 in data set [2] worked out at 200 µM.
In the case of `Cl.[Cl-].[Cl-].[Cl-].[Ru+3].c1c[nH]cn1.c1c[nH]cn1` [NAMI-A], the CC50 in data set [2] is more than 200 µM.
